SMILES strings stand for the structures. Calls of active or inactive are those of the source. The calls are words filed in the database; no cut-off is given here. Residues, ends and D or L forms follow the SMILES beside them.

In this assay the target is Growth/differentiation factor 8 (Homo sapiens) (UniProt O14793). Put plainly: Inhibition of myostatin (unknown origin) expressed in HEK293 cells at 10 uM incubated for 4 hrs by dual luciferase reporter gene assay. The format is cell-based. Background: In a reporter assay the amount or activity of a reporter protein is the signal.
Chain of Growth/differentiation factor 8 (Homo sapiens) (O14793 267-375 limits assumed): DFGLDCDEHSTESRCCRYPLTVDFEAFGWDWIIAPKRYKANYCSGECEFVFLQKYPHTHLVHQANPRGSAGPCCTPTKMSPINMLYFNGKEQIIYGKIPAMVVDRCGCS
Turning to `CC[C@H](C)[C@H](NC(=O)[C@H](CCSC)NC(=O)[C@H](Cc1c[nH]c2ccccc12)NC(=O)[C@H](CCCCN)NC(=O)[C@H](Cc1ccccc1)NC(=O)[C@H](CC(C)C)NC(=O)[C@@H](NC(=O)[C@H](CC(N)=O)NC(=O)[C@H](CC(=O)O)NC(=O)[C@H](CC(N)=O)NC(=O)[C@H](C)N)[C@@H](C)O)C(=O)N[C@@H](Cc1ccccc1)C(=O)N[C@@H](CC(N)=O)C(=O)NCC(N)=O` (H-ANDNTLFKWMIFNG-NH2), the inhibition entry is “inactive”.
For `CC[C@H](C)[C@H](NC(=O)[C@H](CCSC)NC(=O)[C@H](Cc1c[nH]c2ccccc12)NC(=O)[C@H](CCCCN)NC(=O)[C@H](Cc1ccccc1)NC(=O)[C@H](CC(C)C)NC(=O)[C@@H](NC(=O)[C@H](CC(N)=O)NC(=O)[C@H](CC(=O)O)NC(=O)[C@H](CC(N)=O)NC(=O)[C@@H](NC(=O)[C@H](CC(=O)O)NC(=O)[C@H](CCC(=O)O)NC(=O)[C@@H](N)CCC(=O)O)C(C)C)[C@@H](C)O)C(=O)N[C@@H](Cc1ccccc1)C(=O)N[C@@H](CC(N)=O)C(=O)NCC(N)=O` (H-EEDVNDNTLFKWMIFNG-NH2), the inhibition entry was “inactive”.
Turning to `CC[C@H](C)[C@H](NC(=O)[C@H](CCSC)NC(=O)[C@H](Cc1c[nH]c2ccccc12)NC(=O)[C@H](CCCCN)NC(=O)[C@H](Cc1ccccc1)NC(=O)[C@H](CC(C)C)NC(=O)[C@@H](NC(=O)[C@H](CC(N)=O)NC(=O)[C@H](CC(=O)O)NC(=O)[C@@H](N)CC(N)=O)[C@@H](C)O)C(=O)N[C@@H](Cc1ccccc1)C(=O)N[C@@H](CC(N)=O)C(N)=O` (H-NDNTLFKWMIFN-NH2), the inhibition result was “Active”.
As to `CC[C@H](C)[C@H](NC(=O)[C@H](CCSC)NC(=O)[C@H](Cc1c[nH]c2ccccc12)NC(=O)[C@H](CCCCN)NC(=O)[C@H](Cc1ccccc1)NC(=O)[C@H](CC(C)C)NC(=O)[C@@H](NC(=O)[C@H](CC(N)=O)NC(=O)[C@H](CC(=O)O)NC(=O)[C@@H](N)CC(N)=O)[C@@H](C)O)C(=O)N[C@@H](Cc1ccccc1)C(=O)N[C@@H](CC(N)=O)C(=O)NCC(N)=O` (H-NDNTLFKWMIFNG-NH2), the inhibition entry was “inactive”.
On to `CC[C@H](C)[C@H](NC(=O)[C@H](CCSC)NC(=O)[C@H](Cc1c[nH]c2ccccc12)NC(=O)[C@H](CCCCN)NC(=O)[C@H](Cc1ccccc1)NC(=O)[C@H](CC(C)C)NC(=O)[C@@H](NC(=O)[C@H](CC(N)=O)NC(=O)[C@H](CC(=O)O)NC(=O)[C@H](C)NC(=O)[C@@H](N)C(C)C)[C@@H](C)O)C(=O)N[C@@H](Cc1ccccc1)C(=O)N[C@@H](CC(N)=O)C(=O)NCC(N)=O` (H-VADNTLFKWMIFNG-NH2), for which the inhibition result is “inactive”.
As for `CC[C@H](C)[C@H](NC(=O)[C@H](CCSC)NC(=O)[C@H](Cc1c[nH]c2ccccc12)NC(=O)[C@H](CCCCN)NC(=O)[C@H](Cc1ccccc1)NC(=O)[C@H](CC(C)C)NC(=O)[C@@H](NC(=O)[C@H](CC(N)=O)NC(=O)[C@H](C)NC(=O)[C@H](CC(N)=O)NC(=O)[C@@H](N)C(C)C)[C@@H](C)O)C(=O)N[C@@H](Cc1ccccc1)C(=O)N[C@@H](CC(N)=O)C(=O)NCC(N)=O` (H-VNANTLFKWMIFNG-NH2), the entry is “Active”; as for `CC[C@H](C)[C@H](NC(=O)[C@H](CCSC)NC(=O)[C@H](Cc1c[nH]c2ccccc12)NC(=O)[C@H](CCCCN)NC(=O)[C@H](Cc1ccccc1)NC(=O)[C@H](CC(C)C)NC(=O)[C@@H](NC(=O)[C@H](C)NC(=O)[C@H](CC(=O)O)NC(=O)[C@H](CC(N)=O)NC(=O)[C@@H](N)C(C)C)[C@@H](C)O)C(=O)N[C@@H](Cc1ccccc1)C(=O)N[C@@H](CC(N)=O)C(=O)NCC(N)=O` (H-VNDATLFKWMIFNG-NH2), “Active”.
The entry for `CC[C@H](C)[C@H](NC(=O)[C@H](CCSC)NC(=O)[C@H](Cc1c[nH]c2ccccc12)NC(=O)[C@H](CCCCN)NC(=O)[C@H](Cc1ccccc1)NC(=O)[C@H](CC(C)C)NC(=O)[C@H](C)NC(=O)[C@H](CC(N)=O)NC(=O)[C@H](CC(=O)O)NC(=O)[C@H](CC(N)=O)NC(=O)[C@@H](N)C(C)C)C(=O)N[C@@H](Cc1ccccc1)C(=O)N[C@@H](CC(N)=O)C(=O)NCC(N)=O` (H-VNDNALFKWMIFNG-NH2) is “inactive”; for `CC[C@H](C)[C@H](NC(=O)[C@H](CCSC)NC(=O)[C@H](Cc1c[nH]c2ccccc12)NC(=O)[C@H](CCCCN)NC(=O)[C@H](Cc1ccccc1)NC(=O)[C@H](C)NC(=O)[C@@H](NC(=O)[C@H](CC(N)=O)NC(=O)[C@H](CC(=O)O)NC(=O)[C@H](CC(N)=O)NC(=O)[C@@H](N)C(C)C)[C@@H](C)O)C(=O)N[C@@H](Cc1ccccc1)C(=O)N[C@@H](CC(N)=O)C(=O)NCC(N)=O` (H-VNDNTAFKWMIFNG-NH2) it is “inactive”.
As for `CC[C@H](C)[C@H](NC(=O)[C@H](CCSC)NC(=O)[C@H](Cc1c[nH]c2ccccc12)NC(=O)[C@H](CCCCN)NC(=O)[C@H](C)NC(=O)[C@H](CC(C)C)NC(=O)[C@@H](NC(=O)[C@H](CC(N)=O)NC(=O)[C@H](CC(=O)O)NC(=O)[C@H](CC(N)=O)NC(=O)[C@@H](N)C(C)C)[C@@H](C)O)C(=O)N[C@@H](Cc1ccccc1)C(=O)N[C@@H](CC(N)=O)C(=O)NCC(N)=O` (H-VNDNTLAKWMIFNG-NH2), the entry is “inactive”; as for `CC[C@H](C)[C@H](NC(=O)[C@H](CCSC)NC(=O)[C@H](Cc1c[nH]c2ccccc12)NC(=O)[C@H](C)NC(=O)[C@H](Cc1ccccc1)NC(=O)[C@H](CC(C)C)NC(=O)[C@@H](NC(=O)[C@H](CC(N)=O)NC(=O)[C@H](CC(=O)O)NC(=O)[C@H](CC(N)=O)NC(=O)[C@@H](N)C(C)C)[C@@H](C)O)C(=O)N[C@@H](Cc1ccccc1)C(=O)N[C@@H](CC(N)=O)C(=O)NCC(N)=O` (H-VNDNTLFAWMIFNG-NH2), “inactive”.
Regarding `CC[C@H](C)[C@H](NC(=O)[C@H](CCSC)NC(=O)[C@H](C)NC(=O)[C@H](CCCCN)NC(=O)[C@H](Cc1ccccc1)NC(=O)[C@H](CC(C)C)NC(=O)[C@@H](NC(=O)[C@H](CC(N)=O)NC(=O)[C@H](CC(=O)O)NC(=O)[C@H](CC(N)=O)NC(=O)[C@@H](N)C(C)C)[C@@H](C)O)C(=O)N[C@@H](Cc1ccccc1)C(=O)N[C@@H](CC(N)=O)C(=O)NCC(N)=O` (H-VNDNTLFKAMIFNG-NH2), the inhibition result was “inactive”.
Consider `CC[C@H](C)[C@H](NC(=O)[C@H](C)NC(=O)[C@H](Cc1c[nH]c2ccccc12)NC(=O)[C@H](CCCCN)NC(=O)[C@H](Cc1ccccc1)NC(=O)[C@H](CC(C)C)NC(=O)[C@@H](NC(=O)[C@H](CC(N)=O)NC(=O)[C@H](CC(=O)O)NC(=O)[C@H](CC(N)=O)NC(=O)[C@@H](N)C(C)C)[C@@H](C)O)C(=O)N[C@@H](Cc1ccccc1)C(=O)N[C@@H](CC(N)=O)C(=O)NCC(N)=O` (H-VNDNTLFKWAIFNG-NH2), for which the inhibition result is “inactive”.
The entry for `CSCC[C@H](NC(=O)[C@H](Cc1c[nH]c2ccccc12)NC(=O)[C@H](CCCCN)NC(=O)[C@H](Cc1ccccc1)NC(=O)[C@H](CC(C)C)NC(=O)[C@@H](NC(=O)[C@H](CC(N)=O)NC(=O)[C@H](CC(=O)O)NC(=O)[C@H](CC(N)=O)NC(=O)[C@@H](N)C(C)C)[C@@H](C)O)C(=O)N[C@@H](C)C(=O)N[C@@H](Cc1ccccc1)C(=O)N[C@@H](CC(N)=O)C(=O)NCC(N)=O` (H-VNDNTLFKWMAFNG-NH2) is “inactive”; for `CC[C@H](C)[C@H](NC(=O)[C@H](CCSC)NC(=O)[C@H](Cc1c[nH]c2ccccc12)NC(=O)[C@H](CCCCN)NC(=O)[C@H](Cc1ccccc1)NC(=O)[C@H](CC(C)C)NC(=O)[C@@H](NC(=O)[C@H](CC(N)=O)NC(=O)[C@H](CC(=O)O)NC(=O)[C@H](CC(N)=O)NC(=O)[C@@H](N)C(C)C)[C@@H](C)O)C(=O)N[C@@H](C)C(=O)N[C@@H](CC(N)=O)C(=O)NCC(N)=O` (H-VNDNTLFKWMIANG-NH2) it is “inactive”; for `CC[C@H](C)[C@H](NC(=O)[C@H](CCSC)NC(=O)[C@H](Cc1c[nH]c2ccccc12)NC(=O)[C@H](CCCCN)NC(=O)[C@H](Cc1ccccc1)NC(=O)[C@H](CC(C)C)NC(=O)[C@@H](NC(=O)[C@H](CC(N)=O)NC(=O)[C@H](CC(=O)O)NC(=O)[C@H](CC(N)=O)NC(=O)[C@@H](N)C(C)C)[C@@H](C)O)C(=O)N[C@@H](Cc1ccccc1)C(=O)N[C@@H](C)C(=O)NCC(N)=O` (H-VNDNTLFKWMIFAG-NH2) it is “inactive”.
With `CC[C@H](C)[C@H](NC(=O)[C@H](CCSC)NC(=O)[C@H](Cc1c[nH]c2ccccc12)NC(=O)[C@H](CCCCN)NC(=O)[C@H](Cc1ccccc1)NC(=O)[C@H](CC(C)C)NC(=O)[C@@H](NC(=O)[C@H](CC(N)=O)NC(=O)[C@H](CC(=O)O)NC(=O)[C@H](CC(N)=O)NC(=O)[C@@H](N)C(C)C)[C@@H](C)O)C(=O)N[C@@H](Cc1ccccc1)C(=O)N[C@@H](CC(N)=O)C(N)=O` (H-VNDNTLFKWMIFN-NH2), the inhibition result is “inactive”.
The entry for `CC[C@H](C)[C@H](NC(=O)[C@H](CCSC)NC(=O)[C@H](Cc1c[nH]c2ccccc12)NC(=O)[C@H](CCCCN)NC(=O)[C@H](Cc1ccccc1)NC(=O)[C@H](CC(C)C)NC(=O)[C@@H](NC(=O)[C@H](CC(N)=O)NC(=O)[C@H](CC(=O)O)NC(=O)[C@H](CC(N)=O)NC(=O)[C@@H](N)C(C)C)[C@@H](C)O)C(=O)N[C@@H](Cc1ccccc1)C(=O)N[C@@H](CC(N)=O)C(=O)N[C@@H](C)C(N)=O` (H-VNDNTLFKWMIFNA-NH2) is “Active”; for `CC[C@H](C)[C@H](NC(=O)[C@H](CCSC)NC(=O)[C@H](Cc1c[nH]c2ccccc12)NC(=O)[C@H](CCCCN)NC(=O)[C@H](Cc1ccccc1)NC(=O)[C@H](CC(C)C)NC(=O)[C@@H](NC(=O)[C@H](CC(N)=O)NC(=O)[C@H](CC(=O)O)NC(=O)[C@H](CC(N)=O)NC(=O)[C@@H](NC(=O)[C@H](CC(=O)O)NC(=O)[C@H](CCC(=O)O)NC(=O)[C@H](CCC(=O)O)NC(=O)[C@@H](NC(=O)[C@@H](N)Cc1c[nH]c2ccccc12)[C@@H](C)O)C(C)C)[C@@H](C)O)C(=O)N[C@@H](Cc1ccccc1)C(=O)N[C@@H](CC(N)=O)C(=O)NCC(N)=O` (H-WTEEDVNDNTLFKWMIFNG-NH2) it is “inactive”.
